Results: patent EP0972447B1, “Parasitic and saprophagous mite control on beneficial insects” (BASF AKTIENGESELLSCHAFT, priority 1998, dated 2000)

Assays:
[1] = system: Varroa jacobsoni (Varroa mites); experiment: Efficacy against Varroa jacobsoni on topically treated honeybees (Example 1, hives 70% infested): parasite mortality; type: in vivo; conditions: 120 h, 5 days at 31°C, read-out: % Mortality Parasites
Method: (§1) In this evaluation, honeybees (Apis mellifera) taken from hives which are 70% infested with Varroa jacobsoni (Varroa mites) are chilled to immobilize the bees. A 1µl droplet of an acetone solution of test compound is applied to the dorsal abdomen of each bee. Control bees receive a 1µl droplet of acetone. A total of 50-52 bees are treated for each dose rate tested. Treatment dose rates are based upon the LD50 (dose rate required to obtain 50% mortality of healthy uninfected bees) of each test compound and are set at 10% of the LD50 and subsequent 10-fold dilutions thereof. The treated bees are placed in an incubator at 31°C in the dark and fed 50% sugar water ad libitum for 5 days. After incubation, the bees are examined for mortality and mite infestation.

[2] = system: honeybees (Apis mellifera); experiment: Mortality of the topically treated host honeybees (Example 1); type: in vivo; conditions: 5 days at 31°C
Method: as §1

[3] = system: Varroa jacobsoni; experiment: Efficacy against Varroa jacobsoni on topically treated honeybees (Example 2, bees 90% infected): mite mortality; type: in vivo; conditions: 120 h, read-out: % Mortality Mites
Method: as §1
(§2) Using essentially the same procedure described in Example 1, but employing honeybees which are 90% infected with Varroa jacobsoni, the following results are obtained and shown in Table II below.

[4] = system: honeybees; experiment: Mortality of the topically treated host honeybees (Example 2); type: in vivo, Apis mellifera; conditions: bees 90% infected
Method: as §1, §2

[5] = 0.002 µg/bee topical in acetone

`CN(c1ccc(F)c(C(F)(F)F)c1)c1cc(Oc2ccc(F)c(C(F)(F)F)c2)ncn1` [A] gave a mortality at 0.08 µg/bee ([1]; 0.08 µg/bee topical in acetone) of 75%, a mortality at 0.8 µg/bee ([1]; 0.8 µg/bee topical in acetone) of 100% and a mortality at 8 µg/bee ([1]; 8:0 µg/bee topical in acetone) of 92%. The “% Mortality Bees” value ([2]; 0.08 µg/bee topical in acetone) was 21%, the “% Mortality Bees” value ([2]; 0.8 µg/bee topical in acetone) was 13% and the “% Mortality Bees” value ([2]; 8:0 µg/bee topical in acetone) was 21%.
Work on `CN(c1ccc(F)c(C(F)(F)F)c1)c1cc(Oc2ccc(F)c(C(F)(F)F)c2)ncn1` [C] yielded a mortality at 0.01 µg/bee ([3]; 0.01 µg/bee topical) of 8%, a mortality at 0.1 µg/bee ([3]; 0.10 µg/bee topical) of 80% and a mortality at 1 µg/bee ([3]; 1.00 µg/bee topical) of 91%. The “% Mortality Bees” value ([4]; 0.01 µg/bee topical) was 13%, the “% Mortality Bees” value ([4]; 0.10 µg/bee topical) was 12% and the “% Mortality Bees” value ([4]; 1.00 µg/bee topical) was 16%.
`Fc1ccc(Oc2cc(Oc3ccc(F)c(C(F)(F)F)c3)ncn2)cc1C(F)(F)F` [B] gave a mortality at 0.002 µg/bee [1, 5] of 6%, a mortality at 0.02 µg/bee ([1]; 0.02 µg/bee topical in acetone) of 36% and a mortality at 0.2 µg/bee ([1]; 0.2 µg/bee topical in acetone) of 88%. For the same compound, the “% Mortality Bees” value [2, 5] was 16%, the “% Mortality Bees” value ([2]; 0.02 µg/bee topical in acetone) was 14% and the “% Mortality Bees” value ([2]; 0.2 µg/bee topical in acetone) was 10%.
